Test: PAMPA permeability, liver polar lipid extract (LPLE) membrane
Conditions: bovine, PAMPA, pH 7.4, Mean Pe, n=3, * = not detected at acceptor side, value calculated from limit of detection

Row | Papp at 4 h, 100 μM [×10⁻⁶ cm/s] | Structure (SMILES)
1 | 16.9 | CC1Cc2ccccc2N1NC(=O)c1ccc(Cl)c(S(N)(=O)=O)c1 (centres unmarked) [indapamide]
2 | 19 | CC(CCc1ccccc1)NCC(O)c1ccc(O)c(C(N)=O)c1 (centres unmarked) [labetalol]
3 | 24.4 | Cc1c(OCC(F)(F)F)ccnc1C[S+]([O-])c1nc2ccccc2[nH]1 (centres unmarked) [lansoprazole]
4 | 28.5 | COc1ccc2c(c1)N(C[C@H](C)CN(C)C)c1ccccc1S2 [levomepromazine]

Same assay, conditions: bovine, PAMPA, pH 7.4, Mean logPe, n=3

Row | Papp at 4 h, 100 μM [×10⁻⁶ cm/s] | Structure (SMILES)
5 | 23.4 | COc1ccc2c(c1)N(C[C@H](C)CN(C)C)c1ccccc1S2 [levomepromazine]

Same assay, conditions: n=3

Row | Mean logPe | Structure (SMILES)
6 | -4.77 | CC1Cc2ccccc2N1NC(=O)c1ccc(Cl)c(S(N)(=O)=O)c1 (centres unmarked) [indapamide]
7 | -4.72 | CC(CCc1ccccc1)NCC(O)c1ccc(O)c(C(N)=O)c1 (centres unmarked) [labetalol]
8 | -4.62 | Cc1c(OCC(F)(F)F)ccnc1C[S+]([O-])c1nc2ccccc2[nH]1 (centres unmarked) [lansoprazole]

Test: PAMPA permeability, comparison across the six natural lipid extract membranes
Conditions: compounds near the abscissa of the PCA biplot, Figure 12

Row | dependence of permeability on the lipid extract (PCA biplot) | Structure (SMILES)
9 | independent of the investigated lipids | Cc1c(OCC(F)(F)F)ccnc1C[S+]([O-])c1nc2ccccc2[nH]1 (centres unmarked) [lansoprazole]

Same assay, conditions: heart, liver and brain extracts, Figure 10A–C

Row | total-polar permeability comparison | Structure (SMILES)
10 | heart total-liver polar | COc1ccc2c(c1)N(C[C@H](C)CN(C)C)c1ccccc1S2 [levomepromazine]

Test: PAMPA permeability, heart polar lipid extract (HPLE) membrane
Conditions: Heart Polar lipid extract membrane, n=3

Row | Mean logPe | Structure (SMILES)
11 | -5.28 | CC1Cc2ccccc2N1NC(=O)c1ccc(Cl)c(S(N)(=O)=O)c1 (centres unmarked) [indapamide]
12 | -5.08 | CC(CCc1ccccc1)NCC(O)c1ccc(O)c(C(N)=O)c1 (centres unmarked) [labetalol]
13 | -4.74 | Cc1c(OCC(F)(F)F)ccnc1C[S+]([O-])c1nc2ccccc2[nH]1 (centres unmarked) [lansoprazole]
14 | -5.20 | COc1ccc2c(c1)N(C[C@H](C)CN(C)C)c1ccccc1S2 [levomepromazine]

Same assay, conditions: bovine, PAMPA, pH 7.4

Row | Papp at 4 h, 100 μM [×10⁻⁶ cm/s] | Structure (SMILES)
15 | 5.37 | CC1Cc2ccccc2N1NC(=O)c1ccc(Cl)c(S(N)(=O)=O)c1 (centres unmarked) [indapamide]
16 | 8.38 | CC(CCc1ccccc1)NCC(O)c1ccc(O)c(C(N)=O)c1 (centres unmarked) [labetalol]
17 | 18 | Cc1c(OCC(F)(F)F)ccnc1C[S+]([O-])c1nc2ccccc2[nH]1 (centres unmarked) [lansoprazole]
18 | 6.57 | COc1ccc2c(c1)N(C[C@H](C)CN(C)C)c1ccccc1S2 [levomepromazine]

Test: PAMPA permeability, liver total lipid extract (LTLE) membrane
Conditions: Liver total lipid extract membrane, n=3

Row | Mean logPe | Structure (SMILES)
19 | -4.61 | CC1Cc2ccccc2N1NC(=O)c1ccc(Cl)c(S(N)(=O)=O)c1 (centres unmarked) [indapamide]
20 | -4.42 | CC(CCc1ccccc1)NCC(O)c1ccc(O)c(C(N)=O)c1 (centres unmarked) [labetalol]
21 | -4.21 | Cc1c(OCC(F)(F)F)ccnc1C[S+]([O-])c1nc2ccccc2[nH]1 (centres unmarked) [lansoprazole]

Same assay, conditions: Liver total lipid extract membrane, n=3; * = not detected at acceptor side, value calculated from limit of detection

Row | Mean Pe | Structure (SMILES)
22 | < 3,7* 10-6 cm/s | COc1ccc2c(c1)N(C[C@H](C)CN(C)C)c1ccccc1S2 [levomepromazine]

Same assay, conditions: bovine, PAMPA, pH 7.4

Row | Papp at 4 h, 100 μM [×10⁻⁶ cm/s] | Structure (SMILES)
23 | 24.5 | CC1Cc2ccccc2N1NC(=O)c1ccc(Cl)c(S(N)(=O)=O)c1 (centres unmarked) [indapamide]
24 | 38 | CC(CCc1ccccc1)NCC(O)c1ccc(O)c(C(N)=O)c1 (centres unmarked) [labetalol]
25 | 61.9 | Cc1c(OCC(F)(F)F)ccnc1C[S+]([O-])c1nc2ccccc2[nH]1 (centres unmarked) [lansoprazole]
26 | < 3.72 | COc1ccc2c(c1)N(C[C@H](C)CN(C)C)c1ccccc1S2 [levomepromazine]

Test: PAMPA permeability, brain total lipid extract (BTLE) membrane
Conditions: Brain total lipid extract membrane, n=3

Row | Mean logPe | Structure (SMILES)
27 | -5.29 | CC1Cc2ccccc2N1NC(=O)c1ccc(Cl)c(S(N)(=O)=O)c1 (centres unmarked) [indapamide]
28 | -4.83 | CC(CCc1ccccc1)NCC(O)c1ccc(O)c(C(N)=O)c1 (centres unmarked) [labetalol]
29 | -4.54 | Cc1c(OCC(F)(F)F)ccnc1C[S+]([O-])c1nc2ccccc2[nH]1 (centres unmarked) [lansoprazole]
30 | -4.89 | COc1ccc2c(c1)N(C[C@H](C)CN(C)C)c1ccccc1S2 [levomepromazine]

Same assay, conditions: pig, PAMPA, pH 7.4

Row | Papp at 4 h, 100 μM [×10⁻⁶ cm/s] | Structure (SMILES)
31 | 5.22 | CC1Cc2ccccc2N1NC(=O)c1ccc(Cl)c(S(N)(=O)=O)c1 (centres unmarked) [indapamide]
32 | 15.1 | CC(CCc1ccccc1)NCC(O)c1ccc(O)c(C(N)=O)c1 (centres unmarked) [labetalol]
33 | 28.6 | Cc1c(OCC(F)(F)F)ccnc1C[S+]([O-])c1nc2ccccc2[nH]1 (centres unmarked) [lansoprazole]
34 | 15.8 | COc1ccc2c(c1)N(C[C@H](C)CN(C)C)c1ccccc1S2 [levomepromazine]

Test: PAMPA permeability, brain polar lipid extract (BPLE) membrane
Conditions: Brain Polar lipid extract membrane, n=3

Row | Mean logPe | Structure (SMILES)
35 | -5.19 | CC1Cc2ccccc2N1NC(=O)c1ccc(Cl)c(S(N)(=O)=O)c1 (centres unmarked) [indapamide]
36 | -4.65 | CC(CCc1ccccc1)NCC(O)c1ccc(O)c(C(N)=O)c1 (centres unmarked) [labetalol]
37 | -4.58 | Cc1c(OCC(F)(F)F)ccnc1C[S+]([O-])c1nc2ccccc2[nH]1 (centres unmarked) [lansoprazole]
38 | -4.83 | COc1ccc2c(c1)N(C[C@H](C)CN(C)C)c1ccccc1S2 [levomepromazine]

Same assay, conditions: pig, PAMPA, pH 7.4

Row | Papp at 4 h, 100 μM [×10⁻⁶ cm/s] | Structure (SMILES)
39 | 6.6 | CC1Cc2ccccc2N1NC(=O)c1ccc(Cl)c(S(N)(=O)=O)c1 (centres unmarked) [indapamide]
40 | 22.2 | CC(CCc1ccccc1)NCC(O)c1ccc(O)c(C(N)=O)c1 (centres unmarked) [labetalol]
41 | 26.6 | Cc1c(OCC(F)(F)F)ccnc1C[S+]([O-])c1nc2ccccc2[nH]1 (centres unmarked) [lansoprazole]
42 | 15.1 | COc1ccc2c(c1)N(C[C@H](C)CN(C)C)c1ccccc1S2 [levomepromazine]

Test: PAMPA permeability, heart total lipid extract (HTLE) membrane
Conditions: Heart total lipid extract membrane, n=3

Row | Mean logPe | Structure (SMILES)
43 | -5.69 | CC1Cc2ccccc2N1NC(=O)c1ccc(Cl)c(S(N)(=O)=O)c1 (centres unmarked) [indapamide]
44 | -5.27 | CC(CCc1ccccc1)NCC(O)c1ccc(O)c(C(N)=O)c1 (centres unmarked) [labetalol]
45 | -4.67 | Cc1c(OCC(F)(F)F)ccnc1C[S+]([O-])c1nc2ccccc2[nH]1 (centres unmarked) [lansoprazole]
46 | -4.90 | COc1ccc2c(c1)N(C[C@H](C)CN(C)C)c1ccccc1S2 [levomepromazine]

Same assay, conditions: bovine, PAMPA, pH 7.4, Mean Pe, Heart total lipid extract membrane, n=3; * = not detected at acceptor side, value calculated from limit of detection

Row | Papp at 4 h, 100 μM [×10⁻⁶ cm/s] | Structure (SMILES)
47 | 2.04 | CC1Cc2ccccc2N1NC(=O)c1ccc(Cl)c(S(N)(=O)=O)c1 (centres unmarked) [indapamide]
48 | 5.37 | CC(CCc1ccccc1)NCC(O)c1ccc(O)c(C(N)=O)c1 (centres unmarked) [labetalol]
49 | 21.9 | Cc1c(OCC(F)(F)F)ccnc1C[S+]([O-])c1nc2ccccc2[nH]1 (centres unmarked) [lansoprazole]
50 | 13.2 | COc1ccc2c(c1)N(C[C@H](C)CN(C)C)c1ccccc1S2 [levomepromazine]

Reference: PMC10053807, “Natural Lipid Extracts as an Artificial Membrane for Drug Permeability Assay: In Vitro and In Silico Characterization” (Pharmaceutics, 2023)
